Source: patent US20190247353A1, “ACNE STRAIN-SELECTIVE ANTIBACTERIAL AGENT” (MOMOTANI JUNTENKAN CO., LTD., priority 2016, published 2019)
≈ marks a conversion by molar mass, not a printed value. Like-named read-outs stand apart in the source and are kept apart here. One block for each compound: values may come before it.

Assays:
Assay type in all cases: cell-based, Propionibacterium acnes
HL053PA1 strain (RT4) = test: MIC by broth microdilution method, HL053PA1 strain; conditions: for MIC: Cutibacterium acnes
Experimental: (§1) An MIC is measured herein according to the broth microdilution method which is the standard method of Japanese Society of Chemotherapy.
(§2) The antibacterial activity of a test substance was determined based on the minimum inhibitory concentration (MIC). An MIC was measured according to the broth microdilution method which is the standard method of Japanese Society of Chemotherapy.
(§3) One-loopful of each acne bacterium strain listed in Table 1 was scraped off and inoculated into 5 mL of a GAM broth slant agar medium (pH 7.0, Nissui Pharmaceutical Co., Ltd.).
(§4) The inoculated acne bacterium strain was precultured at 37° C. in a nitrogen atmosphere (anaerobic condition) for 48 hours. The precultured microbial cells were diluted in a modified GAM broth liquid medium (pH 6.0) to a concentration of 5.0×10^4 cfu/mL (viable cell count per OD660=1 is 2.0×10^9 cfu/mL), to prepare strain suspensions.
(§5) Each fatty acid (Tokyo Chemical Industry Co., Ltd.) listed in Table 2 was dissolved in dimethylsulfoxide (DMSO) as a solvent such that the concentration became 10,000 μg/mL, and used as a test substance.
(§6) Each of strain suspensions (5.0×10^4 cfu/mL) was aliquoted in a 96-well round bottom microplate, each of the test substance (fatty acid concentration 10,000 μg/mL) was added at a 1/10 volume to the aliquot and mixed to prepare measurement samples (fatty acid concentration: 1,000 μg/mL). Measurement samples in 2-fold dilution series were prepared using the strain suspension (fatty acid concentration from 0.48 to 1,000 μg/mL).
(§7) […] The presence or absence of a precipitation of test microbial cells after the incubation was examined and the minimum concentration at which the precipitation of microbial cells […] was regarded as the MIC (μg/mL) of the test substance against the acne bacterium strain.

HL043PA1 strain (RT5) = test: MIC by broth microdilution method, HL043PA1 strain; conditions: for MIC: Cutibacterium acnes
Experimental: as §1, §2, §3
The inoculated acne bacterium strain was precultured at 37° C. in a nitrogen atmosphere (anaerobic condition) for 48 hours. […]
as §5, §6
The measurement samples were incubated under an anaerobic condition at 37° C. for 2 days. The presence or absence of a precipitation of test microbial cells after the incubation was examined and the minimum concentration at which the precipitation of microbial cells […] was regarded as the MIC (μg/mL) of the test substance against the acne bacterium strain.

HL110PA3 strain (RT6) [1] = test: MIC by broth microdilution method, HL110PA3 strain; conditions: for MIC: Cutibacterium acnes
Experimental: as §1, §2, §3, §4, §5, §6, §7

[2] = test system: HL053PA1 strain (RT4) and HL043PA1 strain (RT5) versus HL110PA3 strain (RT6); test: Strain-selective antibacterial activity (average of MICRT6/MICRT4 and MICRT6/MICRT5)
Excerpt: Herein, “acne strain-selective antibacterial activity” or “strain-selective antibacterial activity” means an index indicating better inhibition of growth of a dominant strain in acne patients compared to that of a dominant strain in healthy subjects. It is expressed by the average value of the values (MICRT6/MICRT4, and MICRT6/MICRTS) obtained by dividing the minimum inhibitory concentration (MIC) of an object substance with respect to the dominant strain in healthy subjects (RT6 strain) (MICRT6) respectively by the MIC of the object substance with respect to the dominant strain in acne patients (RT4 strain) (MICRT4), and by the MIC of the object substance with respect to the dominant strain in acne patients (RT5 strain) (MICRT5).
The strain-selective antibacterial activity of each test substance (Table 2, right-most column) was evaluated based on the following rating criteria (Table 3). When the strain-selective antibacterial activity is indicated by a numerical range, the rating was based on the minimum value thereof.

HL110PA3 strain (RT6) [3] = test: MIC by broth microdilution method, HL110PA3 strain; conditions: Cutibacterium acnes, read-out: MIC against acne bacterium strain HL110PA3 strain (RT6)
[4] = 48 h, pH 6.0 modified GAM broth, anaerobic, 37° C., 2 days (Example 1), read-out: MIC against acne bacterium strain HL053PA1 strain (RT4)
[5] = 48 h, pH 6.0 modified GAM broth, anaerobic, 37° C., 2 days (Example 1), read-out: MIC against acne bacterium strain HL043PA1 strain (RT5)
[6] = 48 h, pH 6.0 modified GAM broth, anaerobic, 37° C., 2 days (Example 1), read-out: MIC against acne bacterium strain HL110PA3 strain (RT6)
[7] = control antibiotics, Comparative Example 2, method as Example 1, read-out: MIC against acne bacterium strain HL053PA1 strain (RT4)
[8] = control antibiotics, Comparative Example 2, for LOD calculated using 0.48 ng/mL as MIC of the RT6 strain
[9] = control antibiotics, Comparative Example 2, method as Example 1, read-out: MIC against acne bacterium strain HL043PA1 strain (RT5)
[10] = control antibiotics, Comparative Example 2, method as Example 1, LOD = MIC <0.48 ng/mL
[11] = monoacylglycerols, Example 3, method as Example 1
[12] = control antibacterial agents, Comparative Example 1, method as Example 1
[13] = control antibacterial agents, Comparative Example 1

SMILES: CCCCCCCCCCCCCCCCCC(=O)O [Stearic acid (C18:0), Stearic acid]
MIC (HL053PA1 strain (RT4); [4]): > 1000 µg/mL
MIC (HL053PA1 strain (RT4); 72 h, pH 5.0, estimated from the growth on day 3, read-out: MIC against acne bacterium strain HL053PA1 strain (RT4)): > 1000 µg/mL
MIC (HL053PA1 strain (RT4); pH 5.5, read-out: MIC against acne bacterium strain HL053PA1 strain (RT4)): > 1000 µg/mL
MIC (HL053PA1 strain (RT4); pH 6.5, read-out: MIC against acne bacterium strain HL053PA1 strain (RT4)): > 1000 µg/mL
MIC (HL053PA1 strain (RT4); pH 7.0, read-out: MIC against acne bacterium strain HL053PA1 strain (RT4)): 62.5 µg/mL (≈ 220 µM)
Strain-selective antibacterial activity ([2]; pH 7.0): 24
Strain-selective antibacterial activity at each pH ([2]; pH 7 (summary Table 10)): 24
MIC (HL043PA1 strain (RT5); [5]): > 1000 µg/mL
MIC (HL043PA1 strain (RT5); 72 h, pH 5.0, estimated from the growth on day 3, read-out: MIC against acne bacterium strain HL043PA1 strain (RT5)): > 1000 µg/mL
MIC (HL043PA1 strain (RT5); pH 6.5, read-out: MIC against acne bacterium strain HL043PA1 strain (RT5)): > 1000 µg/mL
MIC (HL043PA1 strain (RT5); pH 7.0, read-out: MIC against acne bacterium strain HL043PA1 strain (RT5)): 31.3 µg/mL (≈ 110 µM)
MIC (HL110PA3 strain (RT6) [1]; [6]): > 1000 µg/mL
MIC (HL110PA3 strain (RT6) [1]; 72 h, pH 5.5, estimated from the growth on day 3, read-out: MIC against acne bacterium strain HL110PA3 strain (RT6)): > 1000 µg/mL
MIC (HL110PA3 strain (RT6) [1]; 96 h, pH 5.0, estimated from the growth on day 4, read-out: MIC against acne bacterium strain HL110PA3 strain (RT6)): > 1000 µg/mL
MIC (HL110PA3 strain (RT6) [1]; pH 6.5, read-out: MIC against acne bacterium strain HL110PA3 strain (RT6)): > 1000 µg/mL
MIC (HL110PA3 strain (RT6) [1]; pH 7.0, read-out: MIC against acne bacterium strain HL110PA3 strain (RT6)): 1000 µg/mL (≈ 3520 µM)

SMILES: CCCCCC(=O)O [Caproic acid (C6:0), Caproic acid, reference compound]
MIC (HL053PA1 strain (RT4); 48 h, pH 6, read-out: MIC against acne bacterium strain HL053PA1 strain (RT4)): 62.5 µg/mL (≈ 538 µM)
Strain-selective antibacterial activity ([2]; pH 6.0 (Example 1)): 1.0
MIC (HL043PA1 strain (RT5); 48 h, pH 6, read-out: MIC against acne bacterium strain HL043PA1 strain (RT5)): 62.5 µg/mL (≈ 538 µM)
MIC (HL110PA3 strain (RT6) [1]; 48 h, pH 6, read-out: MIC against acne bacterium strain HL110PA3 strain (RT6)): 62.5 µg/mL (≈ 538 µM)

SMILES: CCC[C@@H]1C[C@@H](C(=O)N[C@@H]([C@H]2O[C@H](SC)[C@H](O)[C@@H](O)[C@H]2O)[C@H](C)Cl)N(C)C1 [Clindamycin, reference compound]
MIC (HL053PA1 strain (RT4); [7]): 31 µg/mL (≈ 72.9 µM)
Strain-selective antibacterial activity [2, 8]: 7.5 × 10^−4
MIC (HL043PA1 strain (RT5); [9]): 63 µg/mL (≈ 148 µM)
MIC (HL110PA3 strain (RT6) [3]; [10]): 0.031 µg/mL (≈ 0.0729 µM)

SMILES: CCCCCCCCCCCCCC(=O)OCC(O)CO (centres unmarked) [Monomyristin]
MIC against acne bacterium strain HL053PA1 strain (RT4) (HL053PA1 strain (RT4); [11]): 500 µg/mL (≈ 1650 µM)
Strain-selective antibacterial activity ([2]; monoacylglycerols, Example 3): >2.0
MIC against acne bacterium strain HL043PA1 strain (RT5) (HL043PA1 strain (RT5); [11]): 500 µg/mL (≈ 1650 µM)
MIC against acne bacterium strain HL110PA3 strain (RT6) (HL110PA3 strain (RT6) [1]; [11]): >1000 µg/mL

SMILES: Cc1cc(O)ccc1C(C)C [reference compound]
MIC against acne bacterium strain HL053PA1 strain (RT4) (HL053PA1 strain (RT4); [12]): 125 µg/mL (≈ 832 µM)
Strain-selective antibacterial activity [2, 13]: 0.50
MIC against acne bacterium strain HL043PA1 strain (RT5) (HL043PA1 strain (RT5); [12]): 125 µg/mL (≈ 832 µM)
MIC against acne bacterium strain HL110PA3 strain (RT6) (HL110PA3 strain (RT6) [1]; [12]): 62.5 µg/mL (≈ 416 µM)

SMILES: Oc1cc(Cl)ccc1Oc1ccc(Cl)cc1Cl [Triclosan, reference compound]
MIC (HL053PA1 strain (RT4); read-out: MIC against acne bacterium strain HL053PA1 strain (RT4)): 0.975 µg/mL (≈ 3.37 µM)
Strain-selective antibacterial activity [2, 13]: 3.0
MIC (HL043PA1 strain (RT5); read-out: MIC against acne bacterium strain HL043PA1 strain (RT5)): 1.95 µg/mL (≈ 6.73 µM)
MIC (HL110PA3 strain (RT6) [1]; read-out: MIC against acne bacterium strain HL110PA3 strain (RT6)): 3.9 µg/mL (≈ 13.5 µM)

SMILES: CCCCCCCCCCCCCCCCCC(=O)OCC(O)CO (centres unmarked) [Monostearin]
MIC (HL053PA1 strain (RT4); monoacylglycerols, Example 3, method as Example 1, read-out: MIC against acne bacterium strain HL053PA1 strain (RT4)): > 1000 µg/mL
MIC (HL043PA1 strain (RT5); monoacylglycerols, Example 3, method as Example 1, read-out: MIC against acne bacterium strain HL043PA1 strain (RT5)): > 1000 µg/mL
MIC (HL110PA3 strain (RT6) [3]; [11]): > 1000 µg/mL

More lines, main results first:

MIC (HL053PA1 strain (RT4); [4]): 15.6 µg/mL (≈ 77.9 µM)
MIC (HL043PA1 strain (RT5); [5]): 31.3 µg/mL (≈ 156 µM)
MIC (HL110PA3 strain (RT6) [1]; [6]): 15.6 µg/mL (≈ 77.9 µM)
SMILES: CCCCCCCCCCCC(=O)O [Lauric acid (C12:0), Lauric acid, reference compound]

MIC (HL053PA1 strain (RT4); [7]): 0.98 µg/mL (≈ 2.21 µM)
MIC (HL043PA1 strain (RT5); [9]): 2 µg/mL (≈ 4.5 µM)
MIC (HL110PA3 strain (RT6) [3]; [10]): 0.00048 µg/mL (≈ 0.00108 µM)
SMILES: C[C@H]1c2cccc(O)c2C(=O)C2=C(O)[C@]3(O)C(=O)C(C(N)=O)=C(O)[C@@H](N(C)C)[C@@H]3[C@@H](O)[C@@H]21 [Doxycycline, reference compound]
Strain-selective antibacterial activity [2, 8]: 3.6 × 10^−4

MIC against acne bacterium strain HL053PA1 strain (RT4) (HL053PA1 strain (RT4); [11]): 250 µg/mL (≈ 756 µM)
MIC against acne bacterium strain HL043PA1 strain (RT5) (HL043PA1 strain (RT5); [11]): 31.3 µg/mL (≈ 94.7 µM)
MIC against acne bacterium strain HL110PA3 strain (RT6) (HL110PA3 strain (RT6) [1]; [11]): 1000 µg/mL (≈ 3030 µM)
SMILES: CCCCCCCCCCCCCCCC(=O)OCC(O)CO (centres unmarked) [Monopalmitin]
Strain-selective antibacterial activity ([2]; monoacylglycerols, Example 3): 18
